Data taken from patent EP2545917B1, “NOVEL EP4 AGONIST” (Kaken Pharmaceutical Co., Ltd., priority 2010, dated 2011).

Tests used:
TNF-α = test: Suppressive effect on cytokine production, CD4 positive T cells stimulated with anti-CD3 and anti-CD28 antibody, ELISA; type: cell-based; settings: human CD4 positive T cells, anti-CD3/anti-CD28, 24 hr; geometric mean of three volunteers
Method: (§1) Blood was collected from 3 healthy volunteers, and CD4 positive T cells were prepared. […] In both cases, the test compound was added 30 min before stimulation.

IL-2 = test: as above; type: cell-based; settings: human CD4 positive T cells, anti-CD3/anti-CD28, 24 hr; geometric mean of three volunteers
Method: as §1

IP-10 = test: Suppressive effect on cytokine production, whole blood stimulated with lipopolysaccharide, ELISA; type: cell-based; settings: human whole blood, indometacin, 48 hr, geometric mean of three volunteers
[1] = In vitro metabolic stability: β-oxidation reaction in rat liver mitochondria fraction; type: in vitro ADME; settings: parent compound after NADPH-independent β-oxidation reaction, 37°C, 30 min, tested as isomer mixtures, average ± SD of 3 experiments
Method: A mixture of the compound F and compound J of the present invention described in Table 1 (F:J = 52:41, synthesized in Example 14), and a mixture of compounds wherein the tetrazole groups at C-1 of compound F and compound J are respectively substituted by carboxylic acid (referred to as carboxylate form, F:J = 54:34, synthesized in Example 15) were tested.
First, a mitochondria fraction was prepared from the rat liver according to the following Reference A. Then, in reference to the method of […] et al. described in the following References B and C, an NADPH-independent β oxidation reaction was studied. The reaction was carried out at 37°C for 30 min, and stopped with a methanol solution containing a suitable internal standard substance. Each compound was quantified by the internal standard method using a high performance liquid chromatography mass spectrometry apparatus (LC-MS/MS). The compound residual ratio after metabolic reaction of compounds F, J and each carboxylate form thereof in rat mitochondria fraction is shown in the following Table 2 in average ± standard deviation of 3 experiments. Table 2 Residual Ratio of Parent Compound after β-Oxidation Reaction

eye = test: Local irritative effect on the eye in rabbits; type: in vivo, Japanese white rabbits; settings: single instillation, left eye
Method: Japanese white rabbits (male, 10 weeks old, BIOTEC Co., Ltd.) were purchased, acclimated for 1 week and used for the study. Compound F solution (0.01 w/v%) was instilled once into the cornea of both eyes at a volume of 50 µL/eye with a micropipette. The intraocular pressure of the right eye was measured and the local irritative effect on the eye was evaluated using the left eye. After surface anesthesia with oxybupranol (Benoxil 0.4% instillation solution), the intraocular pressure was measured before ocular instillation ) and 1, 2, 3, 4, 6 and 8 hr after the instillation using a pneumatonometer (Alcon Ltd.). In addition, the local irritative effect on the eye was evaluated by scoring conjunctival congestion, conjunctival edema, cornea opacity, iris congestion, excretion and eye closure performance. For the evaluation, phosphate buffer was used for the solvent control group, and isopropyl unoprostone (Rescula eye drops, Santen Pharmaceutical Co., Ltd.) was used for comparison. Six animals were used for each group and the results were expressed as average.

[2] = test system: Human Platelet Aggregation; test: Inhibitory effect on ADP-induced platelet aggregation in platelet-rich plasma; type: cell-based; settings: ADP 10 µmol/L, geometric mean of three volunteers
Method: The inhibitory effect of compounds F and J, and carboxylate forms thereof on platelet aggregation was evaluated. The carboxylate forms were prepared by separating and purifying the compound synthesized in Example 15 with a column. Blood was drawn from 3 healthy volunteers using sodium citrate as an anticoagulant, and platelet-rich plasma was prepared. The platelet-rich plasma was treated with physiological saline or test compounds and, 2 min later, platelet aggregation was induced with adenosine diphosphate (ADP, final concentration 10 µmol/L) and recorded with a platelet aggregation measurement apparatus (nephelometry).

Mouse EP4 = target: T1, Mouse EP4 (Mus musculus, UniProt P32240); test: Receptor affinity, tritium-labeled PGE2 binding to membranes of transfected COS-7 cells
T1 construct: expressed in transfected cells; host or cells: COS-7
T1 sequence (P32240 whole entry): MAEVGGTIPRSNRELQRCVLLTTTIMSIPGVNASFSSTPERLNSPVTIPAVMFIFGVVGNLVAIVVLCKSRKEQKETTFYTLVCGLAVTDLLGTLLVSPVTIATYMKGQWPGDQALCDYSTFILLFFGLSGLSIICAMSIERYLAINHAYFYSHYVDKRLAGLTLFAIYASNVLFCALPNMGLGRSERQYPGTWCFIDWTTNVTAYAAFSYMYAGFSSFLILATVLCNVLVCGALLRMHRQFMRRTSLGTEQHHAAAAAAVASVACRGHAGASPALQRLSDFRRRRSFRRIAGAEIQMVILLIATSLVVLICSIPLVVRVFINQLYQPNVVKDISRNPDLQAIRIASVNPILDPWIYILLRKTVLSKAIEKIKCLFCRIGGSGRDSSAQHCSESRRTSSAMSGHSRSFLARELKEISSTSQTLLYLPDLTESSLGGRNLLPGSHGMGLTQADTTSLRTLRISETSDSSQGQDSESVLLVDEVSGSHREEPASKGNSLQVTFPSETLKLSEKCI
Method: (§2) PG receptor affinity of compound F and compound J of the present invention was evaluated. Compound F used was one synthesized in Example 9, and compound J was prepared by separating and purifying the compound synthesized in Example 14 with a column (the same preparations were used in the following Examples). COS-7 cells were transfected with the genes of mouse EP4, human EP1-4 or human IP to overexpress the receptor and then the cell membranes were collected. […] The dissociation constant Kd value was obtained and inhibition constant Ki value of each test compound was determined in a conventional method.

Human EP2 = target: T2, Human EP2 (Homo sapiens, UniProt P43116); test: as above
T2 construct: expressed in transfected cells; host or cells: COS-7
T2 sequence (P43116 whole entry): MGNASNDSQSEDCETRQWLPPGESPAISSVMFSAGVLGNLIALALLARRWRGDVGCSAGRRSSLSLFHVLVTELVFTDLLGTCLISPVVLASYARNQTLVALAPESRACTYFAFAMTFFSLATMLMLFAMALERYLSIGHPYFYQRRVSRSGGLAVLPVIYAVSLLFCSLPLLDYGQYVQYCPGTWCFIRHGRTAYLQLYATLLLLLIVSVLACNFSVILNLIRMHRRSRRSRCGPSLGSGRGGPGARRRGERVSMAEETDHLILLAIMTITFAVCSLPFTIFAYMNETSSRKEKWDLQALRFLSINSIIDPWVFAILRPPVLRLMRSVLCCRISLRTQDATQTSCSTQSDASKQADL
Method: as §2

[3] = test system: dextran sodium sulfate-induced colitis; test: Therapeutic effect on remission/relapse model of dextran sodium sulfate-induced colitis in mice; type: in vivo, BALB/c mice
From the text: Next, therapeutic effect of compound F on colitis was studied in a chronic model. Female BALB/c mice, 6 weeks old, body weight about 20 g (Japan SLC) were purchased, acclimated for 1 week and used for the study. The mice were divided into a colitis induction group and a normal group. The colitis induction group was allowed to freely drink a 2.6 w/v% DSS (MP Biochemicals, M.W. 36,000- 50,000, Lot No. 4556J) solution to induce colitis. On day 8 when the stool score (defined in Example 23) of the colitis induction group reached about 4.5, the mice were subdivided into a control group, a compound F 1 mg/kg administration group and a salazosulfapyridine (SIGMA, Lot No. 085K1930, hereinafter to be abbreviated as SASP) 100 mg/kg administration group. Then the mice were allowed to freely drink distilled water instead of DSS solution for 9 days (remission period). After the grouping, the stool score was evaluated every 3 - 4 days. When the score of the control group reached about 1, the mice were again allowed to drink the DSS solution to cause a relapse (relapse period). The periods of remission and relapse were taken as 1 cycle and the cycle was repeated 5 times. As for the 5th cycle, however, only the remission period was performed.
Compound F at a dose of 1 mg/kg and SASP at a dose of 100 mg/kg were orally administered once a day, daily, for 50 days from the initial remission period (day 8 from the start of 2.6 w/v% DSS drinking) to the fifth remission period (day 57 from the start of 2.6 w/v% DSS drinking). To the control group was orally administered a solvent (1 vol% ethanol solution) at 10 mL/kg. If a mouse had score 0 of both stool consistency score and occult blood score on the last day of each remission period, the mouse was regarded as "in remission". The remission ratio (%) was calculated as a ratio of mice in remission in each group. Eight to 10 mice were used for each group and the results are shown in average value.

Human EP4 = target: T3, Human EP4 (Homo sapiens, UniProt P35408); test: EP4 agonist activity, CRE-LUC reporter gene in transfected COS-7 cells; type: cell-based
T3 construct: expressed in transfected cells; host or cells: COS-7
T3 sequence (P35408 whole entry): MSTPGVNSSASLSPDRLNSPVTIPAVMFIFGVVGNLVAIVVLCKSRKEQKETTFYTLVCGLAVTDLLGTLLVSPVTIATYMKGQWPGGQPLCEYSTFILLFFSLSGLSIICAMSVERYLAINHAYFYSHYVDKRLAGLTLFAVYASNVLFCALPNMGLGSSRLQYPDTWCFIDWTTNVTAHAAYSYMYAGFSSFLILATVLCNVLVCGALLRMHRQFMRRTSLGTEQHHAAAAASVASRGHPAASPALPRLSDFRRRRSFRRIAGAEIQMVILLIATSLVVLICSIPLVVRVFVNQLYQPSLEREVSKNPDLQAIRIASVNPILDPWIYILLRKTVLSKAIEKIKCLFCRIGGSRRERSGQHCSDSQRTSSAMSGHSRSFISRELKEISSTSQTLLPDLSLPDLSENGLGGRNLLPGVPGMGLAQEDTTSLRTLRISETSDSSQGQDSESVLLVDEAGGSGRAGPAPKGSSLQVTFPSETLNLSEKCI
Method: In brief, human EP4 gene and CRE-LUC reporter gene were transfected into COS-7 cells. The cells were treated with a test compound one day later, and incubated for 3 hr. The cells were washed, a luminescence substrate was added, and the luminescence intensity was measured for the agonist activity.

[4] = mice, oral once a day, Compound F 1 mg/kg, SASP 100 mg/kg

What does the source list for Cc1cccc([C@@H](C)[C@H](O)/C=C/[C@@H]2[C@@H]3[C@H](C[C@H]2O)O/C(=C\CCCc2nnn[nH]2)C3(F)F)c1 [Compound F, 4-[(Z)-(1S,5R,6R,7R)-6-[(1E,3R,4R)-3-hydroxy-4-(m-tolyl)-1-pentenyl]-7-hydroxy-2-oxa-4,4-difluoro-bicyclo[3.3.0]octan-3-ylidene]-1-(tetrazol-5-yl)butane]?
IC50 (TNF-α): 1.25 nM; IC50 (IL-2): 0.509 nM; IC50 (IP-10): 1.14 nM; Residual ratio [1]: 91.6±6.8%; local irritant effect on the eye (eye): conjunctival edema and eye closure were observed 1 hr after the instillation in some animals; IC50 [2]: 917 nM; Ki (Mouse EP4): 68 nM; Ki (Human EP2): 570 nM; Remission Ratio Average ([3]; average of 5 remission periods, Compound F 1 mg/kg, SASP 100 mg/kg): 66.0%; remission ratio in any remission period ([3]; mice, oral 1 mg/kg once a day): not less than 60%; effect on stool score in remission and relapse periods ([3]; mice, oral once a day for 50 days, compound F 1 mg/kg, SASP 100 mg/kg): decreased the stool score early in the remission period, and suppressed an increase in the score in the relapse period; Remission Ratio Cycle 1 [3, 4]: 60.0%; Remission Ratio Cycle 2 [3, 4]: 80.0%; Remission Ratio Cycle 3 [3, 4]: 70.0%; Remission Ratio Cycle 4 [3, 4]: 60.0%; Remission Ratio Cycle 5 [3, 4]: 60.0%; EC50 (Human EP4): 3.33 nM
